Calls of active or inactive are those of the source. No cut-off for these calls is given here.
How the values were obtained:
Micrococcus luteus = assay: Antibacterial activity against Micrococcus luteus KCTC 1915; assay type: functional
Bacillus subtilis = assay: Antibacterial activity against Bacillus subtilis KCTC 1021; assay type: functional
Staphylococcus aureus = assay: Antibacterial activity against Staphylococcus aureus KCTC 1927; assay type: functional
Salmonella typhimurium = assay: Antibacterial activity against Salmonella typhimurium KCTC 2515; assay type: functional, Salmonella enterica subsp. enterica serovar Typhimurium; details: Salmonella enterica
Escherichia coli = assay: Antibacterial activity against Escherichia coli KCTC 2441; assay type: functional
RAW264.7 = assay: Antiinflammatory activity in mouse RAW264.7 cells; assay type: functional, cell-based
Klebsiella pneumoniae = assay: Antibacterial activity against Klebsiella pneumoniae KCTC 2690; assay type: functional

Structure (SMILES)	MIC (Micrococcus luteus)	MIC (Bacillus subtilis)	MIC (Staphylococcus aureus)	MIC (Salmonella typhimurium)	MIC (Escherichia coli)	MIC (Klebsiella pneumoniae)	Activity (RAW264.7)
CCCCCCCCCC/C=C\C/C=C\CCC[C@H](C)[C@H]1OC[C@H](CO)O1	> 128 µg/mL	> 128 µg/mL	> 128 µg/mL	> 128 µg/mL	> 128 µg/mL	> 128 µg/mL	inactive
CCCCCCCCC/C=C\C/C=C\CCC[C@H](C)[C@H]1OC[C@H](CO)O1	> 128 µg/mL	> 128 µg/mL	> 128 µg/mL	> 128 µg/mL	> 128 µg/mL	> 128 µg/mL	inactive

Continued, in another order:

MIC (Micrococcus luteus)	MIC (Bacillus subtilis)	MIC (Staphylococcus aureus)	MIC (Salmonella typhimurium)	MIC (Escherichia coli)	MIC (Klebsiella pneumoniae)	Structure (SMILES)	Activity (RAW264.7)
> 128 µg/mL	> 128 µg/mL	> 128 µg/mL	> 128 µg/mL	> 128 µg/mL	> 128 µg/mL	CCCCCCCCCCC/C=C\C=C\C(O)CC[C@H](C)[C@H]1OC[C@H](CO)O1 (stereo not given in full)	inactive
> 128 µg/mL	> 128 µg/mL	> 128 µg/mL	> 128 µg/mL	> 128 µg/mL	> 128 µg/mL	CCCCCCCCCCC/C=C\CCC[C@H](C)[C@H]1OC[C@H](CO)O1	inactive
> 128 µg/mL	> 128 µg/mL	> 128 µg/mL	> 128 µg/mL	> 128 µg/mL	> 128 µg/mL	CCCCCCCC/C=C\C/C=C\CCC[C@H](C)[C@H]1OC[C@H](CO)O1	inactive

From ChEMBL document CHEMBL5584286, “Structure Determination of 1,3-Dioxolane-Containing Lipids from the Marine Sponge Leucetta sp. Using Chiral 1H NMR Analysis of Model Systems” (2024)
